Activity calls are given as the source filed them.
Key:
[1] = biological target: T1, Calpain-2 catalytic subunit (Sus scrofa, UniProt P43367); assay: m-calpain protease blockers, concentration series – biochemical, fluorogenic peptide substrate, dose response (AID 1420); format: functional
T1 sequence (P43367 whole entry): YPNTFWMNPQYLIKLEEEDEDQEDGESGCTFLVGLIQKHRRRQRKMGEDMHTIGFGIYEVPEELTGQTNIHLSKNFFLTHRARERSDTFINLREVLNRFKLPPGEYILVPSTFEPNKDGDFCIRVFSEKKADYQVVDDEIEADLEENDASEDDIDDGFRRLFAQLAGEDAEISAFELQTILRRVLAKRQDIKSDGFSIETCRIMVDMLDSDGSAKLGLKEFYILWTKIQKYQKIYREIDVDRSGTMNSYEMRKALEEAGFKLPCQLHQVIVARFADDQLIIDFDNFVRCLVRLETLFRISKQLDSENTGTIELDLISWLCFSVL

[2] = antiviral protection against BTV-induced cell death – arbovirus, BSR cells, confirmation (AID 1250); format: functional;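 also: protection from viral cytopathic effect measured as cell viability by ATP luminescence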
[3] = biological target: T2, E3 ubiquitin-protein ligase XIAP (Homo sapiens, UniProt P98170); assay: Counter Screen using XIAP-Bir3 for Chemical Antagonists of Bir1/2 domains of IAP-family anti-apoptotic proteins. [Related pubchem assays (depositor defined):AID1018, AID1449, AID1514, AID1638, AID1749, AID1750, AID488957, AID488963]
T2 sequence (P98170 whole entry): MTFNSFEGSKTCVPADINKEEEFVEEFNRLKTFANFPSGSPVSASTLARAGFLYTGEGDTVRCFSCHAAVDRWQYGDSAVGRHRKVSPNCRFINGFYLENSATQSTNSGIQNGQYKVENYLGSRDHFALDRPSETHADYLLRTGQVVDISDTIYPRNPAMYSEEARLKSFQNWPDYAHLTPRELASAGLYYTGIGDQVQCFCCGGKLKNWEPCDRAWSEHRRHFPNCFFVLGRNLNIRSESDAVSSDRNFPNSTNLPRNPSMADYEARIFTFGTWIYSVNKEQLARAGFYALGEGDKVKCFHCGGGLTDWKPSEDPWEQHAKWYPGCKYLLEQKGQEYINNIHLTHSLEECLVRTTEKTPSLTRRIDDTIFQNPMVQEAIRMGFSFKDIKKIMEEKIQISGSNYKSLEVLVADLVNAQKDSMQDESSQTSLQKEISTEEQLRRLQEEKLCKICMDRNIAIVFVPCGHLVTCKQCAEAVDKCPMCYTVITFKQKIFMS

[4] = biological target: T2, E3 ubiquitin-protein ligase XIAP; assay: small molecules displacing peptide from XIAP – biochemical, IAP family, fluorescence polarization (AID 1018); format: functional
[5] = biological target: Luciferin 4-monooxygenase (Photinus pyralis, UniProt P08659); assay: Counter Screen for Luciferase-based Assay Positives. [Related pubchem assays: 620, 618, 411 ]
Luciferin 4-monooxygenase, sequence (P08659 whole entry): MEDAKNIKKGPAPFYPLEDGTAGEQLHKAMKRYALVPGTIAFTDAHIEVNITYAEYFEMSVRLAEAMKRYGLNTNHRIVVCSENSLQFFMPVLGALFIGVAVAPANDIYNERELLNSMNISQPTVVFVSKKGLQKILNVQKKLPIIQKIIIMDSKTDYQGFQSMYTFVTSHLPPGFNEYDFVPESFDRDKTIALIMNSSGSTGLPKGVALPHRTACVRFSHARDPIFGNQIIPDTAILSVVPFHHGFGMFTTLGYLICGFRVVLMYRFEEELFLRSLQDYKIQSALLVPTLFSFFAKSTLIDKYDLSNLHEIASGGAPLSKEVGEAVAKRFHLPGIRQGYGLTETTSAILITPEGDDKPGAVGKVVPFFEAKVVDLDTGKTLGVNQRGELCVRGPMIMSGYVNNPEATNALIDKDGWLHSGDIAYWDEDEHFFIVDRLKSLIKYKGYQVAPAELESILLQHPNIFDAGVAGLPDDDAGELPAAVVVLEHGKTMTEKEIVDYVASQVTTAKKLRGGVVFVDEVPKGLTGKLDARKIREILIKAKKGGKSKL

HT-1080 = assay: HT1080 cell viability loss – fluorescence readout (AID 620); format: functional, cell-based; conditions: Homo sapiens
HEK293 = assay: EBV LMP1 TES2 canonical NF-kB signalling blockers – cell-based, HEK293, luciferase, cherry-pick, dose response (AID 588343); format: functional; conditions: Homo sapiens
[6] = biological target: T3, Neuropeptide Y receptor type 2 (Homo sapiens, UniProt P49146); assay: IC50 for human NPY-Y2 blockade – cell-based, counter-screen for NPY-Y1 antagonist project, dose response (AID 1278); format: functional
T3 sequence (P49146 whole entry): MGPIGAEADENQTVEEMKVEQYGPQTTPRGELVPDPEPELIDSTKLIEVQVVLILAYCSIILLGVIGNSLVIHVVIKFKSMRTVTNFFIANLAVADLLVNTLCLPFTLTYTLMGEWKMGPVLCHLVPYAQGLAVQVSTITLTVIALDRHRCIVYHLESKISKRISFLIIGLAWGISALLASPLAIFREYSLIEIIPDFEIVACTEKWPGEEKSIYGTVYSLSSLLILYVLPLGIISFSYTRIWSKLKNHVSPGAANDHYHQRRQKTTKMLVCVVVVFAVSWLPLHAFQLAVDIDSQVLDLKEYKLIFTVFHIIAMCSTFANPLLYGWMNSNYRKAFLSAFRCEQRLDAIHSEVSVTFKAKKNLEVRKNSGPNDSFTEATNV

[7] = biological target: T4, Neuropeptide Y receptor type 1 (Homo sapiens, UniProt P25929); assay: IC50 of human NPY-Y1 blockers – cell-based, dose response (AID 1277); format: functional
T4 sequence (P25929 whole entry): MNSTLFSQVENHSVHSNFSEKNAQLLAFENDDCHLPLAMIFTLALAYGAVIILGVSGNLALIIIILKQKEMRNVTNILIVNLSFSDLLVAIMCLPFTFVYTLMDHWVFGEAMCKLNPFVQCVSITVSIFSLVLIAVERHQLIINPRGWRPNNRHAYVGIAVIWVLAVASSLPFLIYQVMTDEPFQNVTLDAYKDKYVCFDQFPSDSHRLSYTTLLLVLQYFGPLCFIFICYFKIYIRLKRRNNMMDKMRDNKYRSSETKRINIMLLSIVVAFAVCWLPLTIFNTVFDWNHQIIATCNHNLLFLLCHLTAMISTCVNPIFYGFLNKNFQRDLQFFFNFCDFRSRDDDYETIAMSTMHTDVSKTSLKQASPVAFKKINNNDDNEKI

[8] = biological target: Potassium voltage-gated channel subfamily KQT member 2 (Rattus norvegicus, UniProt O88943, W236L); assay: potentiation of rat KCNQ2 current – cell-based, automated electrophysiology, mechanism study for KCNQ2 potentiator project, dose response (AID 2603); format: functional
Potassium voltage-gated channel subfamily KQT member 2, sequence (O88943 whole entry W236L): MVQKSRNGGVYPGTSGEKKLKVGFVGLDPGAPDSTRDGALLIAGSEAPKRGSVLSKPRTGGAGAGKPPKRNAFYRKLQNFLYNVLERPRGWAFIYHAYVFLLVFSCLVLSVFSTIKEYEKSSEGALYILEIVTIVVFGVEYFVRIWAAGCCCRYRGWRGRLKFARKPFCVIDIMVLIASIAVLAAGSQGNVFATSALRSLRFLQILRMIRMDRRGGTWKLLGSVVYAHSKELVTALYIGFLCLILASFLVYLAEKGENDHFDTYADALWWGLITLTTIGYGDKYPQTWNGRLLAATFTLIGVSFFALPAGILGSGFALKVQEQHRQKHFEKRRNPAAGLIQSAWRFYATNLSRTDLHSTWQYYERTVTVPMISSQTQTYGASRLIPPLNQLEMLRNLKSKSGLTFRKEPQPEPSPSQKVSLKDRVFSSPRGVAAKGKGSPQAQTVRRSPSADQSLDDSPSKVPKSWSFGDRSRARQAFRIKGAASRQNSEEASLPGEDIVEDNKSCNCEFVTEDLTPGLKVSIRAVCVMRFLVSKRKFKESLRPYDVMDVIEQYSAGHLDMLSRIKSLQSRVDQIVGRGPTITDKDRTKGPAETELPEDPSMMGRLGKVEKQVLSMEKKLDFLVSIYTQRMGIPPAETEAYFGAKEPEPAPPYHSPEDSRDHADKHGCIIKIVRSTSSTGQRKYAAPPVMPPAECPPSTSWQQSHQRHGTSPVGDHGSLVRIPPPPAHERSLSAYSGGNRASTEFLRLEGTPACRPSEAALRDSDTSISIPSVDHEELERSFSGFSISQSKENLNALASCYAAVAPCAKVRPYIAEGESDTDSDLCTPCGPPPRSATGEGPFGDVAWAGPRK

Bcl-2-like protein 10 = biological target: T5, Bcl-2-like protein 10 (Homo sapiens, UniProt Q9HD36); assay: Concentration-response of Bcl-B inhibitors by biochemical FP with TR3 (AID 1243); format: functional
T5 sequence (Q9HD36 whole entry): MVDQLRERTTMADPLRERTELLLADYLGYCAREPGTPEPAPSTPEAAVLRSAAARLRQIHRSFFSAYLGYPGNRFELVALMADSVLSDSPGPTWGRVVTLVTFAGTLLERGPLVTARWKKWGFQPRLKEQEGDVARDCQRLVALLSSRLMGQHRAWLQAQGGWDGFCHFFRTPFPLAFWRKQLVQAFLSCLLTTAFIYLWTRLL

Mucolipin-3 = Mucolipin-3 (Homo sapiens, UniProt Q8TDD5); assay: Dose response cell-based high-throughput screening assay for agonists of the transient receptor potential channel ML3 (TRPML3). [Related pubchem assays: 1526, 1424, 1448 ]; format: functional
Mucolipin-3, sequence (Q8TDD5 whole entry): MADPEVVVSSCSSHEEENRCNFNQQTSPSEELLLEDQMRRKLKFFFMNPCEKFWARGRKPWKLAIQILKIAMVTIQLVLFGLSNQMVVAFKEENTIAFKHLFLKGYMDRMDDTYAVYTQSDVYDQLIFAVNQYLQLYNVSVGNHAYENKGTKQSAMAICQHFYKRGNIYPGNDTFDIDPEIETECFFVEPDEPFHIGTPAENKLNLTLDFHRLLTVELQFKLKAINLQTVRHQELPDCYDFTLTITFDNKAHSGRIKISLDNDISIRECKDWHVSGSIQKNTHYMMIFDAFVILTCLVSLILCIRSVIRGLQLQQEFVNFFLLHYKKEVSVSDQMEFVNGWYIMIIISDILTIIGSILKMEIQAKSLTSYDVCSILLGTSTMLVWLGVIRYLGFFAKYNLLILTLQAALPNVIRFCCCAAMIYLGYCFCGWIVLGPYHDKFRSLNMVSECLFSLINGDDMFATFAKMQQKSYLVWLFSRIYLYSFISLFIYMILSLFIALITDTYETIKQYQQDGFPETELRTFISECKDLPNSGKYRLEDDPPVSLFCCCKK

Ion channel NompC = Ion channel NompC (Danio rerio, UniProt Q7T1G6); assay: Fluorescence counterscreen assay for TRPML3 agonists: dose response cell-based high-throughput screening assay to identify agonists of the transient receptor potential channel N1 (TRPN1). [Related pubchem assays: 1526, 1424, 1448 ]; format: functional
Ion channel NompC, sequence (Q7T1G6 whole entry): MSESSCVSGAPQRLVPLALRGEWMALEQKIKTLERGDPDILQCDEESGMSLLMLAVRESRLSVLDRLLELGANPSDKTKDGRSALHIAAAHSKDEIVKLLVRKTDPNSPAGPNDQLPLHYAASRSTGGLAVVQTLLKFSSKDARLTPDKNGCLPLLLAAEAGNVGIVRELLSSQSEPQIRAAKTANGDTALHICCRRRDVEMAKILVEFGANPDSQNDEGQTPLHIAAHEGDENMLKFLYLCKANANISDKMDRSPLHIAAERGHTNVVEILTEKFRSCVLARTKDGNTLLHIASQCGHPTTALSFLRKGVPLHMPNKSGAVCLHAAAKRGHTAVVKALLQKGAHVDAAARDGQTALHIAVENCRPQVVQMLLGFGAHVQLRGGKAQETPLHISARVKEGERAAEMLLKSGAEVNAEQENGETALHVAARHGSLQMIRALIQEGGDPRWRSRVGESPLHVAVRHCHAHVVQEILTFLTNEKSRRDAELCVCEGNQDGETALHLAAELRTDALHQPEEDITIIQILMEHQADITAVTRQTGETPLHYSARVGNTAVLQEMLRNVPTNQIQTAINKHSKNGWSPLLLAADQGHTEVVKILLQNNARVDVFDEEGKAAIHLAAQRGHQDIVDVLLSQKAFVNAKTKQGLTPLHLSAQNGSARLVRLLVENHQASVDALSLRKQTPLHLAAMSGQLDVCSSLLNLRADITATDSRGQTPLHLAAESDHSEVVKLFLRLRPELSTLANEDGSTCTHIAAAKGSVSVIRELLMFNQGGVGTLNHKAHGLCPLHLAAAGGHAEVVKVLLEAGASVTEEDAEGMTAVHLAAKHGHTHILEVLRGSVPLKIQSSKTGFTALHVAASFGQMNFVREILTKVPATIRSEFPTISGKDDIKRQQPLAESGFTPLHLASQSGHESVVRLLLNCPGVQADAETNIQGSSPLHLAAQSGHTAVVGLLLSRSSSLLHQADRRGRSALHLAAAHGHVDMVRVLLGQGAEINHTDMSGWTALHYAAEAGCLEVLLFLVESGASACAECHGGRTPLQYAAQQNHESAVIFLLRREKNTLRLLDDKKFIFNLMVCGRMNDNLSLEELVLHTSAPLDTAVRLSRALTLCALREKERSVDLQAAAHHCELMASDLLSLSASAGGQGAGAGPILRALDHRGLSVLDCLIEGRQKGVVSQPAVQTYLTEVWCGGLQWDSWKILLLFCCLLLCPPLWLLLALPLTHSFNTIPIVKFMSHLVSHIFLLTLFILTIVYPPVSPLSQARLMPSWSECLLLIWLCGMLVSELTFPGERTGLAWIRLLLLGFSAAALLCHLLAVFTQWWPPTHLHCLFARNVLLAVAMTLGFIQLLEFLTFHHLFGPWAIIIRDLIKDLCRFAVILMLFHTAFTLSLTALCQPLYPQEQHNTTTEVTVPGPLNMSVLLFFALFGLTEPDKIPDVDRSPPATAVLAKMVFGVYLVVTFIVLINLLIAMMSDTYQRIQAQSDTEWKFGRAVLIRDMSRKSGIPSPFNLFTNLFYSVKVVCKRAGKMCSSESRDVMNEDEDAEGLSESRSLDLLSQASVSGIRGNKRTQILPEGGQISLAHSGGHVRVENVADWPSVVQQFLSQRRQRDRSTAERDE

[9] = Luminescence Cell-Based Dose-Confimation HTS to Identify Inhibitors of 5'UTR Stem-Loop Driven Alpha-Synuclein mRNA Translation in H4 Neuroglioblastoma Cells. [Related pubchem assays: 1827 (Project Summary), 1813 (Primary HTS)]; format: functional
Estrogen receptor = biological target: T6, Estrogen receptor (Homo sapiens, UniProt P03372); assay: ERα coactivator recruitment enhancers – biochemical, TR-FRET, ERα LBD, dose response (AID 737)
T6 sequence (P03372 whole entry): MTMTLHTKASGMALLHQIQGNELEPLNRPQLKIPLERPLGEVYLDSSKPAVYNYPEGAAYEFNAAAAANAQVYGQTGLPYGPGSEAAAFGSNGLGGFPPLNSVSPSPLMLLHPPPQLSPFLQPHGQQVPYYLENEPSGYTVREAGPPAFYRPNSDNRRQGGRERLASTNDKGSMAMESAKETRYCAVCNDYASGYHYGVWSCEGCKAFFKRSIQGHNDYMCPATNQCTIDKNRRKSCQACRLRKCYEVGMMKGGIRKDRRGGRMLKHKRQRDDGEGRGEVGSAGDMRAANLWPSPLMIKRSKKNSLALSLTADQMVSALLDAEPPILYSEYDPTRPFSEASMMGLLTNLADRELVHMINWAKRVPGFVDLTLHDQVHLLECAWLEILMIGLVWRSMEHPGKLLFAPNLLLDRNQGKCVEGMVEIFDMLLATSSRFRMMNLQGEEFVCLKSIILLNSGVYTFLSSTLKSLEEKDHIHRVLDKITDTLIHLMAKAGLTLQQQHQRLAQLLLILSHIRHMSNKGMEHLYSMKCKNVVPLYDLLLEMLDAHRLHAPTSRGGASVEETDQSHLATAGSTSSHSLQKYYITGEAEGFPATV

[10] = biological target: T7, Replicative DNA helicase DnaB (Mycobacterium tuberculosis, UniProt P9WMR3); assay: DnaB intein splicing inhibitors, dose response, biochemical, cell-free fluorescence (AID 449749); format: functional
T7 sequence (P9WMR3 whole entry): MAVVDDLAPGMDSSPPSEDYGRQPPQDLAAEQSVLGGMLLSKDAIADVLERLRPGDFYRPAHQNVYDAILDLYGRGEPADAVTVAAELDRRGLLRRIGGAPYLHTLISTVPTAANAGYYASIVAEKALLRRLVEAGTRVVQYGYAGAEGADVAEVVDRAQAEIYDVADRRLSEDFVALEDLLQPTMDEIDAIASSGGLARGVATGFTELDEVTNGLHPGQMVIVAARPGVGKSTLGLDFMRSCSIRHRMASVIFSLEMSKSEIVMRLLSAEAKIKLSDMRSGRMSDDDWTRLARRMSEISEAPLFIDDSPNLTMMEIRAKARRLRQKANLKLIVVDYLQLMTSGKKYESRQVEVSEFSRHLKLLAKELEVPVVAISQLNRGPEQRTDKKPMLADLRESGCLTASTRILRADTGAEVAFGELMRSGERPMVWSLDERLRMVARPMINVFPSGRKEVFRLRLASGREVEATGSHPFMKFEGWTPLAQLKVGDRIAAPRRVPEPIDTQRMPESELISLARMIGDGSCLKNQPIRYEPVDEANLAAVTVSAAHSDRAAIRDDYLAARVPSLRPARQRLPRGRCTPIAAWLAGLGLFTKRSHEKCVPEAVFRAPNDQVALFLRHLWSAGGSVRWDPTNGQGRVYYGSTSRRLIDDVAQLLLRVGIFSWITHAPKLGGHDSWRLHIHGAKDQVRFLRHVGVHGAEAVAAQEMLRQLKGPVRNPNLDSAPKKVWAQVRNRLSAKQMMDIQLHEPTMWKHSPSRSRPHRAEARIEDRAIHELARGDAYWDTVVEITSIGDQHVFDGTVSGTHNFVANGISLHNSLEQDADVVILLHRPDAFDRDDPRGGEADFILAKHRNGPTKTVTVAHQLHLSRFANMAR

Protein RecA = biological target: T8, Protein RecA (Mycobacterium tuberculosis, UniProt P9WHJ3); assay: Fluorescence Cell-Free Homogeneous Dose Retest to Identify Inhibitors of RecA-Intein Splicing Activity. [Related pubchem assays (depositor defined):AID2097, AID2223, AID489010, AID492950]; format: functional
T8 sequence (P9WHJ3 whole entry): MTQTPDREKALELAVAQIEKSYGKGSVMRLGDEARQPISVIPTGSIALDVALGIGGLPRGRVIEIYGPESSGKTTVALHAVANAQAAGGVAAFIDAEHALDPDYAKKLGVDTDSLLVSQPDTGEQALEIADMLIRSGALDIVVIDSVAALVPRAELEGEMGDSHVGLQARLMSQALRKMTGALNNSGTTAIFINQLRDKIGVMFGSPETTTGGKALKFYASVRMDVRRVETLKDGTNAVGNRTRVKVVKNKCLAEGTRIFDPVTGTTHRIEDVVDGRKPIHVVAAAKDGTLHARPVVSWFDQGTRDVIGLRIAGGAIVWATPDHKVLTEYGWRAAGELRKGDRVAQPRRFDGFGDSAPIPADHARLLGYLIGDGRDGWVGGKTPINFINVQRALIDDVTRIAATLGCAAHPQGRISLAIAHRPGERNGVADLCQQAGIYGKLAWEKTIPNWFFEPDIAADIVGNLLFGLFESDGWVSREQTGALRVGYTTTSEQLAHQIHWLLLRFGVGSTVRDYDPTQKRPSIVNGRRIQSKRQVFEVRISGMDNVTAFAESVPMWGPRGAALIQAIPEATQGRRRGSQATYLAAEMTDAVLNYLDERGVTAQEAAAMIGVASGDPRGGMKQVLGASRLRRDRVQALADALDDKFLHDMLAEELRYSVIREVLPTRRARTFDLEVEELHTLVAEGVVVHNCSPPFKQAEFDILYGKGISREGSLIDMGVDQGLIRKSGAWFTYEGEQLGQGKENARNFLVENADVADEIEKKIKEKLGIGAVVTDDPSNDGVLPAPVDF

COc1ccc(OC)c(N(CC(=O)N2CCN(c3cc(Cl)ccc3C)CC2)S(C)(=O)=O)c1
IC50 [1]: 11.7 µM (not active) | IC50 [2]: 38.9 µM (active)

C=C(C)CC1N(c2cccc(OC)c2)C(=O)C2C(C(=O)O)C3C=CC21O3 (configuration not stated)
IC50 [3]: > 100 µM (inactive) | IC50 [4]: > 100 µM (not active)

CC(=O)c1sc(NC(=O)C2COc3ccccc3O2)nc1C (configuration not stated)
EC50 [5]: 3.97 µM (active) | EC50 (HT-1080): > 50 µM (not active) | AC50 (HEK293): 2.85 µM (active)

Brc1ccc(-c2csc(/N=C/N3CCCC3)n2)cc1
IC50 [6]: > 35 µM (not active) | IC50 [7]: > 35 µM (not active)

CC(C)(C)c1ccc(OCCC(=O)NCC(c2cccs2)N2CCOCC2)cc1 (configuration not stated)
EC50 [8]: 1.97 µM (active)

Cc1ccc(C)n1-c1ccc(Br)cc1C(=O)O
EC50 (Bcl-2-like protein 10): 3.51 µM (active)

COc1ccc(S(=O)(=O)N2CCC(C)CC2)cc1Br
EC50 (Mucolipin-3): 1.82 µM (active) | EC50 (Ion channel NompC): > 29.9 µM (not active)

CN(C)c1nc(N)nc(CSc2nnnn2-c2ccccc2)n1
EC50 [9]: > 195 µM (not active)

CCc1n[nH]c2c1C(c1cccc(OC(=O)N3CCOCC3)c1)C(C#N)=C(N)O2 (configuration not stated)
EC50 (Estrogen receptor): 6.39 µM (not active) | AC50 [10]: 20.3 µM (active) | EC50 (Protein RecA): 9.88 µM (active)

— ChEMBL document CHEMBL1201862, “PubChem BioAssay data set” (2004)
